Data published in PubChem BioAssay (NCI).
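Interpolation was linear, between the two tested concentrations surrounding the appropriate level; five concentrations were tested over 48 hours in 96-well plates. Here, GI50 denotes the concentration required for 50% inhibition of growth. TGI is the concentration that stops growth completely.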 *1 amine or outer side, *2 acyl side, *3 side chain or, on linkers, in order; H or OH if unused. Where a SMILES comes first, the peptide text is derived from it. [ ]: non-standard residue; d: D form. ξ: configuration not given here. X21 = CC[C@@H](C)C(N[*:1])C(=O)[*:2]; ξR = N=C(N)NCCCC(N)C(=O)O; ξI = CCC(C)C(N)C(=O)O; ξL = CC(C)CC(N)C(=O)O; ξK = NCCCCC(N)C(=O)O; ξV = CC(C)C(N)C(=O)O; ξA = CC(N)C(=O)O

Assays:
Assay in all cases: DTP human tumour cell line panel, 48 h
SF-268 CNS = test system: SF-268 CNS
SK-OV-3 ovarian = test system: SK-OV-3 ovarian
RXF 393 renal = test system: RXF 393 renal
786-0 renal = test system: 786-0 renal
UACC-257 melanoma = test system: UACC-257 melanoma
PC-3 prostate = test system: PC-3 prostate
HT29 colon = test system: HT29 colon
HOP-62 NSCLC = test system: HOP-62 NSCLC
MALME-3M melanoma = test system: MALME-3M melanoma
T-47D breast = test system: T-47D breast

For CS(=O)(=O)OCCN(CCOS(C)(=O)=O)c1ccc(C=O)cc1, the TGI (SF-268 CNS) was 43.5 µM, the TGI (SK-OV-3 ovarian) was 7.18 µM and the TGI (RXF 393 renal) was 1.72 µM. The TGI (786-0 renal) was 7.86 µM, the TGI (UACC-257 melanoma) was 39.2 µM and the TGI (PC-3 prostate) was 86 µM. For the same compound, the TGI (HT29 colon) was 57.9 µM, the TGI (HOP-62 NSCLC) was 24 µM and the TGI (MALME-3M melanoma) was 26.7 µM. The TGI (T-47D breast) was > 71.6 µM.

Compound CCC(C)C1NC(=O)C(CC(C)C)NC(=O)C(C)NC(=O)C(C(C)C)NC(=O)C(CCCCN)NC(=O)C(CC(C)C)NC(=O)C(C(C)C)NC(=O)[C@H](C)NC(=O)C(C(C)CC)NC(=O)C(CCCN=C(N)N)NC(=O)C(CCCCN)NC(=O)C(CCCN=C(N)N)NC(=O)C(CCCCN)NC(=O)C([C@H](C)CC)NC(=O)C(CCCCN)NC1=O (stereo not given in full) (cyclo(A[ξV][ξL][ξK][ξV][ξA][ξL][ξI][ξK][X21][ξK][ξR][ξK][ξR][ξI])) has a GI50 (SF-268 CNS) of 1.76 µM, a TGI (SF-268 CNS) of 5.12 µM and a GI50 (SK-OV-3 ovarian) of 1.99 µM. It also gave a TGI (SK-OV-3 ovarian) of 5.94 µM, a GI50 (RXF 393 renal) of 1.52 µM and a TGI (RXF 393 renal) of 2.96 µM. It also gave a GI50 (786-0 renal) of 1.62 µM, a TGI (786-0 renal) of 3.17 µM and a GI50 (UACC-257 melanoma) of 0.476 µM. The TGI (UACC-257 melanoma) was 2.58 µM, the GI50 (PC-3 prostate) was 0.701 µM and the TGI (PC-3 prostate) was 4.85 µM. It also gave a GI50 (HT29 colon) of 2.59 µM, a TGI (HT29 colon) of 10.3 µM and a GI50 (HOP-62 NSCLC) of 1.7 µM. The TGI (HOP-62 NSCLC) was 4.18 µM, the GI50 (MALME-3M melanoma) was 1.12 µM and the TGI (MALME-3M melanoma) was 2.58 µM. The GI50 (T-47D breast) was 0.756 µM and the TGI (T-47D breast) was 4.28 µM.

In the case of C[C@H](N)C(=O)N1C[C@H](CCCB(O)O)[C@](N)(C(=O)O)C1, the GI50 (SF-268 CNS) is reported as > 100 µM, the TGI (SF-268 CNS) is reported as > 100 µM and the GI50 (SK-OV-3 ovarian) is reported as > 100 µM. For the same compound, the TGI (SK-OV-3 ovarian) was > 100 µM, the GI50 (RXF 393 renal) was > 100 µM and the TGI (RXF 393 renal) was > 100 µM. The GI50 (786-0 renal) was > 100 µM, the TGI (786-0 renal) was > 100 µM and the GI50 (UACC-257 melanoma) was > 100 µM. The TGI (UACC-257 melanoma) was > 100 µM, the GI50 (PC-3 prostate) was > 100 µM and the TGI (PC-3 prostate) was > 100 µM. For the same compound, the GI50 (HT29 colon) was > 100 µM, the TGI (HT29 colon) was > 100 µM and the GI50 (HOP-62 NSCLC) was > 100 µM. The TGI (HOP-62 NSCLC) was > 100 µM, the GI50 (MALME-3M melanoma) was > 100 µM and the TGI (MALME-3M melanoma) was > 100 µM. The GI50 (T-47D breast) was > 100 µM and the TGI (T-47D breast) was > 100 µM.

In the case of CNCCCNCCCN1C(=O)c2ccc3c4c(ccc(c24)C1=O)C(=O)N(CCCNCc1ccccc1OC)C3=O, the GI50 (SF-268 CNS) is reported as 1.03 µM, the TGI (SF-268 CNS) is reported as 9.02 µM and the GI50 (SK-OV-3 ovarian) is reported as 2.95 µM. The TGI (SK-OV-3 ovarian) was 23.7 µM, the GI50 (RXF 393 renal) was 1.89 µM and the TGI (RXF 393 renal) was 5.71 µM. For the same compound, the GI50 (786-0 renal) was 1.27 µM, the TGI (786-0 renal) was 4.56 µM and the GI50 (UACC-257 melanoma) was 1.35 µM. The TGI (UACC-257 melanoma) was 2.72 µM, the GI50 (PC-3 prostate) was 1.6 µM and the TGI (PC-3 prostate) was 10.1 µM. The GI50 (HT29 colon) was 0.381 µM, the TGI (HT29 colon) was 1.95 µM and the GI50 (HOP-62 NSCLC) was 1.24 µM. It also gave a TGI (HOP-62 NSCLC) of 4.44 µM, a GI50 (MALME-3M melanoma) of 0.633 µM and a TGI (MALME-3M melanoma) of 1.96 µM. It also gave a GI50 (T-47D breast) of 1.25 µM and a TGI (T-47D breast) of 4.1 µM.

For CC1(C)CC(Nc2ccc(Nc3ccccc3)cc2)CC(C)(C)N1, the TGI (SF-268 CNS) was > 85.4 µM, the TGI (SK-OV-3 ovarian) was > 100 µM and the TGI (RXF 393 renal) was 47.5 µM. For the same compound, the TGI (786-0 renal) was 49.2 µM, the TGI (UACC-257 melanoma) was 23.9 µM and the TGI (PC-3 prostate) was 32.3 µM. The TGI (HT29 colon) was 50.7 µM, the TGI (HOP-62 NSCLC) was 77.3 µM and the TGI (MALME-3M melanoma) was 35.8 µM. It also gave a TGI (T-47D breast) of 37.5 µM.

CN(C)CCCn1c2nc(=O)[nH]c(=O)c-2nc2cc(Cl)c(Cl)cc21 was tested, and the GI50 (SF-268 CNS) was 5.31 µM, the TGI (SF-268 CNS) was 17.6 µM and the GI50 (SK-OV-3 ovarian) was 22.3 µM. The TGI (SK-OV-3 ovarian) was 65.6 µM, the GI50 (RXF 393 renal) was 13.2 µM and the TGI (RXF 393 renal) was 26.3 µM. It also gave a GI50 (786-0 renal) of 8.79 µM, a TGI (786-0 renal) of 23.2 µM and a GI50 (UACC-257 melanoma) of 2.23 µM. It also gave a TGI (UACC-257 melanoma) of 5.66 µM, a GI50 (PC-3 prostate) of 2.67 µM and a TGI (PC-3 prostate) of 8.8 µM. The GI50 (HT29 colon) was 2.13 µM, the TGI (HT29 colon) was 11.9 µM and the GI50 (HOP-62 NSCLC) was 4.14 µM. It also gave a TGI (HOP-62 NSCLC) of 15.9 µM, a GI50 (MALME-3M melanoma) of 9.28 µM and a TGI (MALME-3M melanoma) of 26.8 µM. For the same compound, the GI50 (T-47D breast) was 1.76 µM and the TGI (T-47D breast) was 5.86 µM.

COC1=C(Br)C(=O)C2=C(C1=O)C1C3=C(C(=O)C=CC3=O)C2c2ccccc21 (stereo not given) showed a GI50 (SF-268 CNS) of 18.2 µM, a TGI (SF-268 CNS) of 59.6 µM and a GI50 (SK-OV-3 ovarian) of 45.6 µM. The TGI (SK-OV-3 ovarian) was > 100 µM, the GI50 (RXF 393 renal) was 18.3 µM and the TGI (RXF 393 renal) was 37.5 µM. The GI50 (786-0 renal) was 14.9 µM, the TGI (786-0 renal) was 36.1 µM and the GI50 (UACC-257 melanoma) was 38.2 µM. For the same compound, the TGI (UACC-257 melanoma) was > 100 µM, the GI50 (PC-3 prostate) was 4.35 µM and the TGI (PC-3 prostate) was 25.6 µM. The GI50 (HT29 colon) was 31.9 µM, the TGI (HT29 colon) was > 100 µM and the GI50 (HOP-62 NSCLC) was 25.9 µM. It also gave a TGI (HOP-62 NSCLC) of 47.6 µM, a GI50 (MALME-3M melanoma) of 27.8 µM and a TGI (MALME-3M melanoma) of 56.8 µM. For the same compound, the GI50 (T-47D breast) was 3.16 µM and the TGI (T-47D breast) was 21.7 µM.
